Patent US10954267B2, “Dipeptide comprising a non-proteogenic amino acid” (Novo Nordisk A/S, priority 2011, dated 2021)
Square brackets hold non-standard residues; d marks the D form. Peptide text beside a SMILES is read from it. * marks the point of attachment. Fmoc = O=C(OCC1c2ccccc2-c2ccccc21)*; Aib = CC(C)(N)C(=O)O

Assay: Storage stability studies of the dipeptide TFA salt
Type: physicochemical
Procedure: Fmoc-His(Trt)-Aib-OH (1 moleq., starting material) was suspended in DCM (1.5 mL/g) and TIPS (1.7 moleq.) was added. Cooled (0-10° C.) TFA (3 mL/g) was added and the mixture was stirred at ambient temperature until the reaction was completed (High-performance liquid chromatography (HPLC) conversion). DME (1 mL/g starting material) and TBME (11 mL/g starting material) was added leading to an increase in temperature. The temperature was slowly allowed to return to room temperature (rt) resulting in precipitation of a white solid. The mixture was stirred for an additional 3 hr and filtered. The precipitate was washed twice with TBME (3 mL/g starting material) and dried overnight in vacuo affording the de-tritylated dipeptide as TFA-salt in 90% yield.

Measured: stability (storage)

CC(C)(NC(=O)[C@H](Cc1c[nH]cn1)NC(=O)OCC1c2ccccc2-c2ccccc21)C(=O)O [Example 1, 2-[(S)-2-(9H-Fluoren-9-ylmethoxycarbonylamino)-3-(1H-imidazol-4-yl)-propanoylamino]-2-methyl-propanoic Acid Trifluoracatate] (Fmoc-His-[Aib]-OH)
more than 24 month: freeze (<−15° C.±5° C.) | fridge (5° C.±3° C.) | room temperature (20° C.±3° C.)
